Laboratory results taken from paper PMC8326471, “Synthesis and biological evaluation of new pyrazolebenzene-sulphonamides as potential anticancer agents and hCA I and II inhibitors” (Turkish Journal of Chemistry, 2021).

Key:
[1] = Cytotoxicity assay (MTT), HGF normal cells; format: cell-based; settings: human, HGF gingival fibroblasts (normal oral cells), non-tumor cells
Method: (§1) The cytotoxicity of the compounds 4a - 4j were assayed towards human tumor cell lines [gingival carcinoma (Ca9–22), oral squamous cell carcinoma (HSC-2)] and human normal oral cells [gingival fibroblasts (HGF), and periodontal ligament fibroblasts (HPLF)] as described [42, 54 – 56]. In brief, all cells were cultured in Dulbecco’s modified eagle’s medium (DMEM) supplemented with 10% fetal bovine serum (FBS). The following concentrations of the compounds in dimethylsulfoxide (DMSO) were added to the medium and incubated at 37 ° C for 48 h: 4a - 4j ([…]), melphalan (3.12, 6.25, 12.5, 25. 50, 100, 200 and […]) and 5-FU ([…]). The media that contained the same concentration of DMSO ([…], 0.03125, 0.0625, 0.125, 0.25, 0.5 or 1%) were used as controls since DMSO above 0.25% is cytotoxic. The viable cell numbers were determined by the 3-(4,5-dimethylthiazol-2-yl)-2,5-diphenyltetrazolium bromide (MTT) assay. The CC50 values were determined from dose-response curves.
(§2) Cytotoxicity’s of the compounds 4a - 4j were evaluated towards Ca9–22, HSC-2, HSC-3, and HSC-4 human oral squamous cell carcinoma cell lines as tumor cell lines and HGF, HPLF, and HPC human normal oral cells as nontumor cells (Table 1) according to the procedure in the literature [42, 54 – 56]. 5-Fluorouracil (5-FU) was used as a reference anticancer drug.

[2] = test system: gingival carcinoma (Ca9-22) cells; test: Cytotoxicity assay (MTT), Ca9-22; format: cell-based, human; settings: for CC50: Homo sapiens, Ca9-22, tumor cell line, 48 h, MTT; for times of potency compared to 5-FU, Ca9-22: cytotoxicity relative to 5-FU; for PSE2 times more potent than 5-FU: PSE2 relative to reference drug 5-FU
Method: as §1, §2

[3] = Cytotoxicity assay (MTT), HPC normal cells; format: cell-based; settings: human, HPC normal oral cells, non-tumor cells
Method: as §1, §2

[4] = Cytotoxicity assay (MTT), HPLF normal cells; format: cell-based; settings: human, HPLF periodontal ligament fibroblasts (normal oral cells), non-tumor cells
Method: as §1, §2

[5] = Cytotoxicity assay, all non-tumor cells (mean); format: cell-based; settings: human, normal oral cells HGF, HPLF and HPC (mean of the three), read-out: Non-tumor cell lines CC50 mean (D)
Method: as §1, §2

hCA I = hCA I (Homo sapiens, UniProt P00915); test: Carbonic anhydrase enzyme assay (esterase activity), hCA I; format: biochemical; settings: for Ki: Lineweaver-Burk plot; for IC50: esterase activity, p-nitrophenyl acetate
Sequence of hCA I (P00915 whole entry, canonical isoform): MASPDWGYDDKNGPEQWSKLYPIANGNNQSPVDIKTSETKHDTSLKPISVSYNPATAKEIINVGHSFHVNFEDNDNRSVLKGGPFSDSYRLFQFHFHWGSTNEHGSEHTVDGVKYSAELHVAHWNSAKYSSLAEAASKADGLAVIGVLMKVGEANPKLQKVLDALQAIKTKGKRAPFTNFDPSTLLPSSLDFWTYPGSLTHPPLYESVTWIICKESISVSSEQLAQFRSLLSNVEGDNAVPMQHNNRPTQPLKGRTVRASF
Source text: (§3) Human CA isoforms (hCAI and hCAII) were purified by the sepharose - 4B – L - tyrosine sulfanilamide affinity segregation method as reported. […] Inhibitory effects of the compounds were investigated by measuring the esterase activity according to Verpoorte et al. as described in previous studies [61 – 63].
(§4) Vmax, maximal velocity; VImax, maximal velocity of inhibitor; I, inhibitor; Ki, the inhibitor constant.

[6] = test system: oral squamous cell carcinoma (HSC-2) cells; test: Cytotoxicity assay (MTT), HSC-2; format: cell-based, human; settings: for CC50: Homo sapiens, HSC-2, tumor cell line, 48 h, MTT; for times of potency compared to 5-FU, HSC-2: cytotoxicity relative to 5-FU
Method: as §1, §2

[7] = test system: human oral squamous cell carcinoma cell lines (Ca9-22, HSC-2, HSC-3, HSC-4); test: Cytotoxicity assay, all tumor cell lines (mean, TS1, PSE1); format: cell-based; settings: mean of Ca9-22, HSC-2, HSC-3, HSC-4, read-out: Tumor cell lines CC50 mean (B)
Method: as §1, §2
The tumor selectivity (TS1 and TS2) of each compound was calculated as described in previously reported literature procedures and these figures are presented in Table 1. Based on the TS1 values, 4f and 4g which have 2,5 and 2,4-dimethoxy substituents had the highest TS1 values in a series with 22.4 and 22.2, respectively. On the other hand, the 3,4,5-trimethoxy substituted compound 4i (TS1: 19.6) had the […] TS1 value. […] As expected, they were in accordance with the literature findings [16 – 18]. The second calculation (TS2) considered the differences of sensitivity between the malignant (Ca9–22) and non-malignant (HGF) cells derived from the same tissue (gingiva). According to TS2 values obtained, 4i (3,4,5-trimethoxy) had the highest TS2 value of 43.
The desired properties for a lead compound are being both markedly cytotoxic and selectively toxic for tumors. PSE1 reflects general cytotoxicity and selectivity potency of the compound towards all cells used, whereas PSE2 seems more specified since it was considered for the same origin cells. When the compounds tested towards OSCC lines were considered in terms of PSE2 values of the compounds. The best poly-methoxylated compounds were 4i (with 3,4,5-trimethoxy, PSE2 = 461.5) ˃ 4f (with 2,5-dimethoxy, PSE2 = 425.1) ˃ 4g (with 2,4-dimethoxy, PSE2 = 405.4) while the best mono-methoxylated derivative was 4b (with 4-methoxy, PSE2 = 205).

[8] = test system: HSC-3 oral squamous cell carcinoma cells; test: Cytotoxicity assay (MTT), HSC-3; format: cell-based; settings: Homo sapiens, tumor cell line, 48 h
Method: as §1, §2

[9] = test system: HSC-4 oral squamous cell carcinoma cells; test: Cytotoxicity assay (MTT), HSC-4; format: cell-based; settings: Homo sapiens, tumor cell line, 48 h
Method: as §1, §2

hCA II = hCA II (Homo sapiens, UniProt P00918); test: Carbonic anhydrase enzyme assay (esterase activity), hCA II; format: biochemical; settings: for Ki: Lineweaver-Burk plot; for IC50: esterase activity, p-nitrophenyl acetate
Source text: as §3, §4

Compound: COc1cc(OC)c(C2=NN(c3ccc(S(N)(=O)=O)cc3)C(c3ccc4c(c3)OCO4)C2)cc1OC (centres unmarked) [4h, 4-[5-(1,3-Benzodioxol-5-yl)-3-(2,4,5-trimethoxyphenyl)-4,5-dihydro-1H-pyrazol-1-yl]benzenesulphonamide]
- CC50 at 48 h [1]: 400 µM
- CC50 [2]: 400 µM
- CC50 at 48 h [3]: 400 µM
- CC50 at 48 h [4]: 400 µM
- CC50 at 48 h [5]: 400 µM
- melting point: 191 to 193 °C
- Ki (hCA I): 49.6 ± 1.9 µM
- IC50 (hCA I): 13.8 µM
- CC50 [6]: 400 µM
- CC50 [7]: 211 µM
- CC50 [8]: 21.3 µM
- CC50 [9]: 21.8 µM
- Ki (hCA II): 9.3 ± 1.6 µM
- IC50 (hCA II): 14.3 µM

Compound: COc1cc(C2=NN(c3ccc(S(N)(=O)=O)cc3)C(c3ccc4c(c3)OCO4)C2)ccc1O (centres unmarked) [4j, 4-[5-(1,3-Benzodioxol-5-yl)-3-(4-hydroxy-3-methoxyphenyl)-4,5-dihydro-1H-pyrazol-1-yl]benzenesulphonamide]
- CC50 at 48 h [1]: 76.7 µM
- CC50 [2]: 17 µM
- times of potency compared to 5-FU, Ca9-22 [2]: 1.3
- CC50 at 48 h [3]: 54.3 µM
- CC50 at 48 h [4]: 64.7 µM
- CC50 at 48 h [5]: 65.2 µM
- melting point: 161 to 163 °C
- Ki (hCA I): 29.8 ± 9.4 µM
- IC50 (hCA I): 17.9 µM
- CC50 [6]: 26.7 µM
- times of potency compared to 5-FU, HSC-2 [6]: 9.8
- CC50 [7]: 21.7 µM
- CC50 [8]: 26.3 µM
- CC50 [9]: 16.8 µM
- Ki (hCA II): 9.3 ± 1.9 µM
- IC50 (hCA II): 20 µM

Compound: NS(=O)(=O)c1ccc(N2N=C(c3ccccc3)CC2c2ccc3c(c2)OCO3)cc1 (centres unmarked) [4a, 4-[5-(1,3-Benzodioxol-5-yl)-3-phenyl-4,5-dihydro-1H-pyrazol-1 yl]benzenesulphonamide]
- CC50 at 48 h [1]: 56.3 µM
- CC50 [2]: 17.1 µM
- times of potency compared to 5-FU, Ca9-22 [2]: 1.3
- CC50 at 48 h [3]: 63.2 µM
- CC50 at 48 h [4]: 37.6 µM
- CC50 at 48 h [5]: 52.4 µM
- melting point: 196 to 198 °C
- Ki (hCA I): 59.8 ± 3 µM
- IC50 (hCA I): 30.1 µM
- CC50 [6]: 26.1 µM
- times of potency compared to 5-FU, HSC-2 [6]: 10
- CC50 [7]: 22.5 µM
- CC50 [8]: 20.8 µM
- CC50 [9]: 26.1 µM
- Ki (hCA II): 8.9 ± 2.3 µM
- IC50 (hCA II): 10.7 µM

Compound: COc1cc(C2=NN(c3ccc(S(N)(=O)=O)cc3)C(c3ccc4c(c3)OCO4)C2)cc(OC)c1OC (centres unmarked) [4i, 4-[5-(1,3-Benzodioxol-5-yl)-3-(3,4,5-trimethoxyphenyl)-4,5-dihydro-1H-pyrazol-1-yl]benzenesulphonamide]
- CC50 at 48 h [1]: 400 µM
- CC50 [2]: 9.3 µM
- PSE2 times more potent than 5-FU [2]: 2.2
- times of potency compared to 5-FU, Ca9-22 [2]: 2.4
- CC50 at 48 h [3]: 371 µM
- CC50 at 48 h [4]: 83.7 µM
- CC50 at 48 h [5]: 285 µM
- melting point: 212 to 214 °C
- Ki (hCA I): 52.5 ± 1.8 µM
- IC50 (hCA I): 29.7 µM
- CC50 [6]: 30.9 µM
- times of potency compared to 5-FU, HSC-2 [6]: 8.4
- CC50 [7]: 14.6 µM
- CC50 [8]: 11.3 µM
- CC50 [9]: 6.7 µM
- Ki (hCA II): 24.1 ± 7.1 µM
- IC50 (hCA II): 12.5 µM

Compound: O=c1[nH]cc(F)c(=O)[nH]1 [5-FU, 5-Fluorouracil, reference compound]
- CC50 at 48 h [1]: 1000 µM
- CC50 [2]: 22 µM
- CC50 at 48 h [3]: 958 µM
- CC50 at 48 h [4]: 1000 µM
- CC50 at 48 h [5]: 986 µM
- CC50 [6]: 261 µM
- CC50 [7]: 75.8 µM
- CC50 [8]: 7.8 µM
- CC50 [9]: 12.5 µM

Compound: COc1ccc(OC)c(C2=NN(c3ccc(S(N)(=O)=O)cc3)C(c3ccc4c(c3)OCO4)C2)c1 (centres unmarked) [4f, 4-[5-(1,3-Benzodioxol-5-yl)-3-(2,5-dimethoxyphenyl)-4,5-dihydro-1H-pyrazol-1-yl]benzenesulphonamide]
- CC50 at 48 h [1]: 400 µM
- CC50 [2]: 9.7 µM
- PSE2 times more potent than 5-FU [2]: 2.1
- times of potency compared to 5-FU, Ca9-22 [2]: 2.3
- CC50 at 48 h [3]: 147 µM
- CC50 at 48 h [4]: 276 µM
- CC50 at 48 h [5]: 274 µM
- melting point: 144 to 146 °C
- Ki (hCA I): 27.8 ± 10.1 µM
- IC50 (hCA I): 14 µM
- CC50 [6]: 15.7 µM
- times of potency compared to 5-FU, HSC-2 [6]: 16.6
- CC50 [7]: 12.2 µM
- CC50 [8]: 11.5 µM
- CC50 [9]: 12 µM
- Ki (hCA II): 12.3 ± 2.8 µM
- IC50 (hCA II): 16.3 µM

Compound: COc1ccc(C2=NN(c3ccc(S(N)(=O)=O)cc3)C(c3ccc4c(c3)OCO4)C2)cc1OC (centres unmarked) [4e, 4-[5-(1,3-Benzodioxol-5-yl)-3-(3,4-dimethoxyphenyl)-4,5-dihydro-1H-pyrazol-1-yl]benzenesulphonamide]
- CC50 at 48 h [1]: 400 µM
- CC50 at 48 h [3]: 400 µM
- CC50 at 48 h [4]: 400 µM
- CC50 at 48 h [5]: 400 µM
- melting point: 243 to 245 °C
- Ki (hCA I): 25.5 ± 1.6 µM
- IC50 (hCA I): 10.2 µM
- CC50 [6]: 400 µM
- CC50 [7]: 227 µM
- CC50 [8]: 61 µM
- CC50 [9]: 400 µM
- Ki (hCA II): 9.3 ± 0.6 µM
- IC50 (hCA II): 15.2 µM

Compound: COc1ccc(C2=NN(c3ccc(S(N)(=O)=O)cc3)C(c3ccc4c(c3)OCO4)C2)c(OC)c1 (centres unmarked) [4g, 4-[5-(1,3-Benzodioxol-5-yl)-3-(2,4-dimethoxyphenyl)-4,5-dihydro-1H-pyrazol-1-yl]benzenesulphonamide]
- CC50 at 48 h [1]: 400 µM
- CC50 [2]: 9.9 µM
- PSE2 times more potent than 5-FU [2]: 2.0
- times of potency compared to 5-FU, Ca9-22 [2]: 2.2
- CC50 at 48 h [3]: 131 µM
- CC50 at 48 h [4]: 234 µM
- CC50 at 48 h [5]: 255 µM
- melting point: 134 to 136 °C
- Ki (hCA I): 12.7 ± 1.7 µM
- IC50 (hCA I): 6.7 µM
- CC50 [6]: 13.5 µM
- times of potency compared to 5-FU, HSC-2 [6]: 19.3
- CC50 [7]: 11.5 µM
- CC50 [8]: 9.8 µM
- CC50 [9]: 12.7 µM
- Ki (hCA II): 7.8 ± 2.2 µM
- IC50 (hCA II): 11.3 µM
